Experimental findings from patent EP0103381B1, “Substituted anthra(1,9-cd)pyrazol-6(2H)-ones” (WARNER-LAMBERT COMPANY, priority 1982, dated 1984) are described below.

The test system of assay [1] is Bacillus subtilis. Put plainly: agar plate paper-disc inhibition zone screening. The assay is classed as cell-based. The note with it: read-out: Inhibition Zone Diameter mm (Dose mg/ml) B. Subtilis; for zone of inhibition at 3000 µg/mL: Dose 3.0 mg/ml; for zone of inhibition at 1000 µg/mL: Dose 1.0 mg/ml. As for the experimental part:
(§1) The bacterial and yeast isolates are maintained in agar slants or in liquid media, hereby designated as inoculum media. The cultures are transferred at regular intervals in such media. (See Table for the corresponding inoculum media of each culture.) The organisms are generally transferred on to agar slants or liquid inoculum media and incubated overnight (18-20 hours): 37°C for the bacterial isolates and 28°C for the fungal cultures.
(§2) The microbial cells from the overnight agar slants are then scraped off and suspended in saline solution (0.85% NaCI). The microbial concentrations are adjusted to a light transmittancy of 20-35%, Junior Coleman Spectrophotometer (555 M). For the organisms that are maintained in liquid media, an aliquot of the culture suspension is simply diluted with saline to 20-35% light transmittancy.
(§3) The above microbial suspension serve as inocula for the assay plates. Thus, 0.16-10 ml (see Table for exact amount) are used to inoculate 100 ml of the molten-agar assay medium.
(§4) Stainless steel frames, 12.3 x 25.3 cm (ID) and glass plates, 15.3 x 31.7 cm are used to make the test trays. The frames are attached to the plates with tape at each end and the inner edges sealed with 2% agar. Twenty five ml of inoculated assay medium is spread evenly on each tray and allowed to solidify. The trays are covered, inverted, and refrigerated until used.
(§5) The compounds or samples to be tested are dissolved in suitable solvents, e.g., alcohols, dimethylsulfoxide, or N,N-dimethylformamide. The samples are generally dissolved so that the final concentration of the solvent is <10%.^* The compounds are tested at different concentrations: 3,000; 1,000; 500; 100; and 10 mcg/ml. Paper discs (12.7 mm diameter) are placed on the agar trays with forceps, then 0.08 ml of the dissolved compound is pipetted onto each disc using a 0.2 ml pipette.
(§6) The disked agar trays are incubated overnight (18-20 hours) at 37°C for the bacterial cultures and 28°C for the yeasts. The Penicillium avellaneium tray is incubated for at least […] since it is a slower- growing organism.
(§7) Active compounds show a zone of inhibition around the disc. The diameter of the zone is measured in mm. The zone diameter of active compounds ranges from a minimum of 13.5 mm to as high as 60 mm. The size of the zone diameter generally reflects the activity of the compound: the larger the zone the greater the activity.

Assay [2] has as its system Aerobacter aerogenes. Put plainly: agar plate paper-disc inhibition zone screening. The assay is classed as cell-based. The note with it: Klebsiella aerogenes, read-out: Inhibition Zone Diameter mm (Dose mg/ml) A. Aerogenes; for zone of inhibition at 500 µg/mL: Dose 0.5 mg/ml; for zone of inhibition at 3000 µg/mL: Dose 3.0 mg/ml. As to the method:
as §1, §2, §3, §4, §5, §6, §7

Assay [3] concerns Streptococcus faecalis. Nature of the assay: agar plate paper-disc inhibition zone screening. In kind it is cell-based. The note with it: Enterococcus faecalis, read-out: Inhibition Zone Diameter mm (Dose mg/ml) S. Faecalis; for zone of inhibition at 3000 µg/mL: Dose 3.0 mg/ml. As to the method:
as §1, §2, §3, §4, §5, §6, §7

Assay [4] relates to Escherichia coli. Nature of the assay: agar plate paper-disc inhibition zone screening. In kind it is cell-based. The note with it: read-out: Inhibition Zone Diameter mm (Dose mg/ml) E. Coli; for zone of inhibition at 3000 µg/mL: Dose 3.0 mg/ml. As for the experimental part: as §1, §2, §3, §4, §5, §6, §7
Assay [5] has as its system Penicillium avellaneum. Nature of the assay: agar plate paper-disc inhibition zone screening. The note with it: Hamigera avellanea, read-out: Inhibition Zone Diameter mm (Dose mg/ml) P. Avellaneum; for zone of inhibition at 3000 µg/mL: Dose 3.0 mg/ml. The assay is classed as cell-based. As for the experimental part:
The Penicillium avellaneum is grown for six days, at 28°C, on an agar medium. This is to allow sporulation of the culture. The organism is then harvested by scraping off the cells from the agar surface (mycelia and spores) and suspending them in saline solution containing 0.05% Tween 80.
The suspension is adjusted to a light transmittancy of 20%. One ml of this suspension is used to inoculate 100 ml of the molten-agar assay medium.
as §4, §5, §6, §7

For assay [6], the system named is lymphocytic leukemia P388. Nature of the assay: in vivo lymphocytic leukemia P388 test. Set-up: species or system mice. Conditions: Mus musculus, P388, ip, 720 h, two single doses four days apart, read-out: T/C × 100 (Percent). As to the method:
The in vivo lymphocytic leukemia P388 test is carried out by the United States National Cancer Institute. The animals used are either male or female CD2F, mice. There are six to seven animals per test group. The tumor transplant is by intraperitoneal injection of dilute ascitic fluid containing cells of lymphocytic leukemia P388. The test compounds are administered intraperitoneally in two single doses with a four-day interval between doses at various dose levels following tumor inoculation. The animals are weighed and survivors are recorded on a regular basis for 30 days. A ratio of survival time for treated (T)/ control (C) animals is calculated. The criterion for efficacy is T/C x 100 > 125%. The positive control compound in this test is 1,4-dihydroxy-5,8-[bis[[2-[(2-hydroxyethyl)amino]-ethyl]amino]-9,10-anthracene- dione given at dosages ranging from 12.0 to 0.075 mg/kg. See Cancer Chemotherapy Reports, Part 3, 3, 1 (1972) for a comprehensive discussion of the protocol.

For `NCCn1nc2c3c(c(Cl)ccc31)C(=O)c1ccccc1-2` [H; Cl*; (CH2)2NH2, 2-(2-Aminoethyl)-5-chloroanthra[1,9-cd]pyrazol-6(2H)-one], the zone of inhibition at 3000 µg/mL turned out to be 14 mm in assay [1], 0 mm in assay [3] and 16 mm in assay [5]. Moreover, the zone of inhibition at 100 µg/mL amounted to 25 mm in assay [2] (Dose 0.1 mg/ml) and 16 mm in assay [4] (Dose 0.1 mg/ml).

In the case of `O=C1c2c(NCCNCCO)cccc2-c2nn(CCNCCO)c3cccc1c23` [Example 81, 2-[2-[(2-Hydroxyethyl)amino]lethyl]-7-[[2-[(2-hydroxyethyl)amino]ethyl]amino]anthra[1,9-cd]pyrazol-6(2H)-one], the figures for the zone of inhibition at 500 µg/mL in assay [1] (Dose 0.5 mg/ml) and in assay [2] were 16 mm and 17 mm, respectively. The zone of inhibition at 3000 µg/mL in assay [3] and in assay [5] was 0 mm each time. The zone of inhibition at 1000 µg/mL in assay [4] (Dose 1.0 mg/ml) came out at 20 mm.

Take `CCN(CC)CCCCCCCNc1ccc2c3c(nn2CCO)-c2ccccc2C(=O)c13` [Example 17, 5-[[7-(Diethylamino)heptyl]amino]-2-(2-hydroxyethyl)anthra[1,9-cd]pyrazol-6(2H)-one]: the zone of inhibition at 1000 µg/mL in assay [1] is 20 mm. The zone of inhibition at 3000 µg/mL in assay [2], in assay [3], in assay [4] and in assay [5] was 0 mm throughout.

Turning to `O=C1c2cccc(O)c2-c2nn(CCNCCO)c3ccc(NCCNCCO)c1c23` [Example 85, 10-Hydroxy-2-(2-[(2-hydroxyethyl)amino]ethyl]-5-[[2-[(2-hydroxyethyl)amino]ethyl]amino]anthra[1,9-cd] pyrazol-6(2H)-one], the results for the zone of inhibition at 3000 µg/mL in assay [1], in assay [3] and in assay [5] were 14 mm, 0 mm and 0 mm, respectively. For the same compound, in assay [6] (P388, Dose 25 mg/kg intraperitoneally), the response vs control in vivo at 25 mg/kg worked out at 163%. Besides, in assay [6] (P388, Dose 50 mg/kg intraperitoneally), the response vs control in vivo at 50 mg/kg was determined as 172%.

With `CCN(CC)CCn1nc2c3c(c(Cl)ccc31)C(=O)c1c(O)ccc(O)c1-2` [Example 49, 5-Chloro-2-[2-(diethylamino)ethyl]-7,1 0-dihydroxyanthra[1,9-cd] pyrazol-6(2H)-one], in assay [1], the zone of inhibition at 1000 µg/mL came to 14 mm. The zone of inhibition at 3000 µg/mL in assay [2] was found to be 0 mm; in assay [3], 0 mm; in assay [4], 0 mm; in assay [5] it was 16 mm.

As for `COCCn1nc2c3c(c(NCCN)ccc31)C(=O)c1c(O)ccc(O)c1-2` [Example 77, 5-[(2-Aminoethyl)amino]-7,10-dihydroxy-2-(2-methoxyethyl)anthra(1,9-cd]pyrazol-6(2H)-one], the zone of inhibition at 3000 µg/mL in assay [1] is 16 mm; in assay [2] it was 14 mm; in assay [3] it was 0 mm; in assay [4], 16 mm; in assay [5] it was 0 mm.

Turning to `NCCNc1ccc2c3c(nn2CCN)-c2c(O)ccc(O)c2C(=O)c13` [Example 72, 2-(2-Aminoethyl)-5-[(2-aminoethyl)amino]-7,10-dihydroxyanthra[1,9-cd]pyrazol-6(2H)-one], the zone of inhibition at 3000 µg/mL came to 0 mm in assay [1]; 14 mm in assay [2]; 0 mm in assay [3]; 0 mm in assay [4]; 0 mm in assay [5].

As for `O=C1c2c(O)ccc(O)c2-c2nn(CCNCCO)c3ccc(NCCN4CCOCC4)c1c23` [Example 61, 7,10-Dihydroxy-2-[2-[(2-hydroxyethyl)amino]ethyl]-5-[[2-(4-morpholinyl)ethyl]amino]anthra[1,9-cd]pyrazol-6(2H)-one], in assay [1], the zone of inhibition at 1000 µg/mL was found to be 15 mm. For the same compound, the zone of inhibition at 3000 µg/mL in assay [2] was found to be 0 mm; in assay [3], 0 mm; in assay [4], 14 mm; in assay [5], 0 mm.

On to `Cn1nc2c3c(c(NCCN)ccc31)C(=O)c1c(O)ccc(O)c1-2` [Example 40, 5-[(2-Aminoethyl)amino]-7,10-dihydroxy-2-methylanthra[1,9-cd]pyrazol-6(2H)-one], for which the zone of inhibition at 3000 µg/mL in assay [1] amounted to 0 mm; in assay [2], 14 mm; in assay [3] it was 14 mm; in assay [4], 14 mm; in assay [5] it was 0 mm.

For the compound `O=C1c2ccccc2-c2nn(CCO)c3ccc(NCCNCCO)c1c23` [Example 12, 2-(2-Hydroxyethyl)-5-[[2-[(2-hydroxyethyl)amino]ethyl]amino]anthra[1,9-cd]pyrazol-6(2H)-one], the zone of inhibition at 100 µg/mL in assay [1] (Dose 0.1 mg/ml) is 14 mm. The zone of inhibition at 500 µg/mL in assay [2] amounted to 14 mm. Also, the zone of inhibition at 3000 µg/mL in assay [3] was determined as 16 mm; in assay [4], 14 mm; in assay [5] it was 0 mm.

Turning to `O=C1c2ccccc2-c2nn(CCO)c3ccc(NCCN4CCOCC4)c1c23` [Example 14, 2-(2-Hydroxyethyl)-5-[[2-(4-morpholinyl)ethyl]amino][1,9-cd]pyrazol-6(2H)-one], the zone of inhibition at 1000 µg/mL in assay [1] worked out at 16 mm. In addition, the zone of inhibition at 3000 µg/mL in assay [2] is 0 mm; in assay [3], 0 mm; in assay [4] it was 16 mm; in assay [5] it was 0 mm.

On to `CCN(CC)CC(O)Cn1nc2c3c(c(Cl)ccc31)C(=O)c1ccccc1-2` (centres unmarked) [H; Cl*; CH2CHOHCH2NEt2], for which the zone of inhibition at 1000 µg/mL in assay [1] was 14 mm; in assay [3] (Dose 1.0 mg/ml), 15 mm; in assay [5] (Dose 1.0 mg/ml), 16 mm. Further, in assay [2], the zone of inhibition at 3000 µg/mL came to 17 mm. Moreover, the zone of inhibition at 500 µg/mL in assay [4] (Dose 0.5 mg/ml) is 14 mm.

In the case of `CCCCCCNc1ccc2c3c(nn2CCN(CC)CC)-c2ccccc2C(=O)c13` [Example 8, 2-[2-(Diethylamino)ethyl]-5-(hexylamino)anthra[1,9-cd]pyrazol-6(2H)-one], the zone of inhibition at 1000 µg/mL in assay [1] was 16 mm. Also, the zone of inhibition at 3000 µg/mL in assay [2] was 0 mm; in assay [3] it was 0 mm; in assay [4], 0 mm; in assay [5], 16 mm.
